Values quoted from earlier work in patent US11612566B2, “Lamotrigine oral liquid suspension and use thereof” (OWP Pharmaceuticals, Inc., priority 2019, dated 2023).

Settings: BCS class II molecule; poorly soluble in water

solubility: low
Structure (SMILES): Nc1nnc(-c2cccc(Cl)c2Cl)c(N)n1 [Lamotrigine, 6-(2,3-dichlorophenyl)-1,2,4-triazine-3,5-diamine]
